Experimental data reported in publication PMC5423501 (The Oncologist, 2017).
Entries after “also recorded” stand apart in the source; their conditions may differ. Like-named read-outs stand apart in the source and are kept apart here.

Tests used:
[1] = test system: patients with HIV and cancer; conditions: cited from earlier work
[2] = Steady-state plasma pharmacokinetics, cycle 1 day 8; assay type: in vivo, human
[3] = test system: patients with Kaposi sarcoma; conditions: in vivo
Kaposi sarcoma = assay: KS response assessment; assay type: in vivo, human
IL‐12p40 = assay: Serum factors, V-Plex assay, baseline vs end of cycle 1; assay type: in vivo, human; conditions: baseline to end of cycle 1; p = .002
[4] = test system: patients with HIV and HCC; conditions: 27 patients with HIV and HCC, 400 mg sorafenib twice daily, retrospective; cited from earlier work
bFGF = assay: Serum factors, V-Plex assay, baseline vs end of cycle 1; assay type: in vivo, human; conditions: baseline to end of cycle 1; p = .018
patients with HCC = conditions: phase III trial in HCC; cited from earlier work

## CCN(CC)CCNC(=O)c1c(C)[nH]c(/C=C2\C(=O)Nc3ccc(F)cc32)c1C [sunitinib]
[1]; HIV patients not taking ritonavir
  tolerability: tolerated standard dosing
[1]; patients receiving ritonavir
  tolerability: higher toxicities at lower doses
[1]; patients with HIV and cancer
  effect of ritonavir on sunitinib and active metabolite: decreases in the sunitinib active metabolite but not the parent drug

## CNC(=O)c1cc(Oc2ccc(NC(=O)Nc3ccc(Cl)c(C(F)(F)F)c3)cc2)cc[n+]1[O-] [Sorafenib N-Oxide, Sorafenib N‐oxide]
[2]; trend, p = .08
  decrease of AUCTAU of sorafenib-N-oxide in patients receiving ritonavir: 3.8 fold

## CNC(=O)c1cc(Oc2ccc(NC(=O)Nc3ccc(Cl)c(C(F)(F)F)c3)cc2)ccn1 [Sorafenib]
[3]
  patients with grade 3 toxicities that did not meet DLT criteria: five
Kaposi sarcoma; 2/7, 95% CI 4%–71%
  ORR in patients evaluable for response: 29%
Kaposi sarcoma; 2/10, 95% CI 3%–56%
  ORR in all patients: 20%
Kaposi sarcoma; range 1–5, 21-day cycles
  Median duration of SD: 4 cycles
IL‐12p40
  change in serum IL-12p40: statistically significant decrease
[4]
  diarrhea, grade 3–4 AE: 15%
  hypertension, grade 3–4 AE: 11%
  palmar-plantar erythrodysesthesia syndrome, grade 3–4 AE: 15%
[2]; 200 mg dose at steady state
  CMAX and AUC0-12h of sorafenib compared with literature: within reported ranges
[2]; cohort on ritonavir vs not on ritonavir
  effect of ritonavir on steady-state AUCTAU (exposure) of sorafenib: not significantly affected by ritonavir; also recorded: only modestly affected
bFGF
  change in serum bFGF: potential trend towards decreased bFGF
Patients with HCC
  diarrhea, grade 3–4 AE: 8%
  hypertension, grade 3–4 AE: 2%
  palmar-plantar erythrodysesthesia syndrome, grade 3–4 AE: 8%
